This is an account of results in patent US20260266848A1, “COMPOSITIONS AND METHODS FOR DIAGNOSING AND TREATING DYSTONIA” (Duke University, priority 2023, published 2026).

The experiment relates to DYT1 MEF secreted EVs. Description: Small RNAseq of miRNAs in EVs secreted by DYT1 vs WT MEFs, ritonavir 24 h. The class given is cell-based, mouse. The note with it: 24 hour culture exposure. The protocol:
RNA was isolated from the DYT1 vs WT mouse embryonic fibroblast (MEF) secreted EVs, using the same cultures used in proteomic experiments. Small RNA sequencing was performed using a Illumina Novoseq 500. […] The number of independent culture preparations per genotype was three (N=3). The EV fraction was divided and separately analyzed for proteins and RNAs. […] Genotype-disrupted miRNAs and genotype-directionality as identified in FIG. 6A are indicated by blue and red dots in FIG. 6B. […] Blue and red data points of FIG. 6C identify genotype effect and directionality originally as in FIG. 6A.

In the case of `CC(C)c1nc(CN(C)C(=O)N[C@H](C(=O)N[C@@H](Cc2ccccc2)C[C@H](O)[C@H](Cc2ccccc2)NC(=O)OCc2cncs2)C(C)C)cs1` [ritonavir], the “effect on genotype-disrupted subset of EV miRNAs” value is “strong correlation of corrective effects”. In addition, the “effect on genotype-disrupted subset of EV miRNAs” value (listed as Ritonavir) is “stronger correlation of corrective effects”.
